The values below come from patent US9884848B2, “Phenyl triazole derivative and its use for modulating the GABAA receptor complex” (SANIONA A/S, priority 2012, dated 2018).

The target in this test is T1, human GABAA α5β3*γ2s receptors (Homo sapiens, UniProt P18507+P31644).
T1 construct: expressed in transfected cells
The experiment in a line: In vitro inhibition of 3H-flumazenil binding, HEK cells expressing the human GABAA α5β3*γ2S receptor. As to the method:
When the cultures reach confluency, the DMEM is removed and the cells are washed (10 ml for T175 flasks; 50 ml for roller bottles) once in Dulbecco's Phosphate Buffered Saline (DPBS). Following addition of DPBS to the cultures (10 ml for T175 flasks; 100 ml for roller bottles) for approximately 5 min cells are easily detached from the surface by shaking or tapping the flask gently. The cell suspension is transferred to Falcon tubes and centrifuged at 23,500×g for 10 min at 2° C. The pellet is washed once in 15 ml Tris-citrate buffer (50 mM, pH 7.1) using an Ultra-Turrax homogenizer and centrifuged at 2° C. for 10 min at 27,000×g. The washed pellet is re-suspended in 15 ml Tris-citrate buffer and frozen at −80° C. until the day of the binding experiment.
On the day of the experiment the cell membrane preparation is thawed and centrifuged at 2° C. for 10 min at 27,000×g.
Non-specific binding is determined using clonazepam (1 μM, final concentration). […]
The amount of radioactivity on the filters is determined by conventional liquid scintillation counting using a […]
where B is the binding in percentage of total specific binding; C is the concentration of test compound; and n is the Hill coefficient. […] The IC50 value is calculated from the concentration response curves by the non-linear regression method using the curve-fitting program GraphPad Prism.

Molecules are shown by their SMILES.

T1 sequence (P31644 32-462): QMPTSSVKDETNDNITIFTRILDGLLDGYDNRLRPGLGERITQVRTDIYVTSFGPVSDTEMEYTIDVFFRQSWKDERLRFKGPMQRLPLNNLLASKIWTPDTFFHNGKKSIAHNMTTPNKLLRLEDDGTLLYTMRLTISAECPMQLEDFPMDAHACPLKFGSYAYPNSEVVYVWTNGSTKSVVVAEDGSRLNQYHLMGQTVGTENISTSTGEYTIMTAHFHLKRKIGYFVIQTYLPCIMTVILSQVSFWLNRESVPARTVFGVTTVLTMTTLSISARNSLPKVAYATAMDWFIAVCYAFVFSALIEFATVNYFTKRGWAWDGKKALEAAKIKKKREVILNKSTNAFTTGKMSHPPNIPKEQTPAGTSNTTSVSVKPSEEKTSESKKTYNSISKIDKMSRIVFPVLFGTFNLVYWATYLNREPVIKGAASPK
T1 sequence (P18507 40-467 isoform P18507-1 limits assumed): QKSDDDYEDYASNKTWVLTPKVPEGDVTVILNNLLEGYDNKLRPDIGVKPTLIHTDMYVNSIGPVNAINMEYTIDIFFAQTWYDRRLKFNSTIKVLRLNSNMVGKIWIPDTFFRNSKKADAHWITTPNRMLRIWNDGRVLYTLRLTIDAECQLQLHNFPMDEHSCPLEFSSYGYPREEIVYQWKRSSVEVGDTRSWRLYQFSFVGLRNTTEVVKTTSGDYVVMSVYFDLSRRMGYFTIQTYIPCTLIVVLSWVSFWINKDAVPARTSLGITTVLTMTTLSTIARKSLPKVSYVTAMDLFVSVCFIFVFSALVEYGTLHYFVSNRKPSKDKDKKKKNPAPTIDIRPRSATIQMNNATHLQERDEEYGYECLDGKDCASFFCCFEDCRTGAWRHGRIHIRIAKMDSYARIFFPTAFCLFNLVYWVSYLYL

`NC(=O)c1ccc(OCc2c(C(F)F)nnn2-c2ccc(F)cc2)nn1` [Compound 1, 6-[[5-(difluoromethyl)-3-(4-fluorophenyl)triazol-4-yl]methoxy]pyridazine-3-carboxamide] yielded an inhibitory constant (Ki) of 87 nM.

What is called Ki is a measure of affinity in units of concentration, obtained from inhibition or displacement.
